Test results from patent US20140162966A1, “NANOPARTICLES FOR DELIVERY OF LIGANDS” (The U.S.A, as represented by the Secretary, Department of …, priority 2012, published 2014).

Columns and labels:
4T1-fluc cells = assay: cellular uptake of Cy3-labeled siRNA; type: cell-based
Method: CD44 expression was confirmed by flow cytometry. The red fluoresecence from Cy3-labeled siRNA was more intense in 4T1-fluc cells that were treated with siRNA/HADPA-Zn-NPs than in the cells that were treated with Lipofectamine 2000 (Lipo2K)/siRNA. […] Furthermore, the uptake of siRNA/HADPA-Zn-NPs into 4T1-fluc cells was 3.7±0.5-fold higher than the uptake into 293T cells.

[1] = test system: subcutaneous 4T1-fluc tumors; assay: in vivo gene silencing in 4T1-fluc xenograft mouse model (in vivo BLI); parameters: species or system Balb/C mice; details: 72 hours after intratumor injection; siLuc 100 pmol and/or NPs 200 ug in 80 uL
Method: Four groups of Balb/C mice (n=5 per group) with subcutaneous 4T1-fluc tumors were treated with an intratumor injection of 80 uL of a buffer solution that contained siLuc/HADPA-Zn-NPs (100 pmol/200 ug), HADPA-Zn-NPs (200 ug), naked siLuc (100 pmol), or phosphate-buffered saline (PBS). The silencing of the fluc gene was measured by in vivo BLI. […] In contrast the control groups had increased levels of fluc expression ((30.0±4.1) %, (38.2±3.9)%, and (39.2±5.3)%, for HADPA-Zn-NPs, naked siRNA, and PBS, respectively, FIG. 8). The tumors from each group were harvested and weighed after BLI to determine whether the apparent gene silencing effect was a result of a reduction in the volume of the tumors as a consequence of the toxicity of the formulation. As shown by the […] testing, there was no significant difference in the neoplastic weights of the tumors between the various groups.

Question: How did the “fluorescence observed in treated cells” value (4T1-fluc cells) turn out when Zn-dipicolylamine [Zn-DPA] was run?
Answer: no fluorescence was observed

Question: With “naked siRNA: siRNA that targets the firefly luciferase gene, SEQUENCE ID NO. 1 and 2, without carrier (chain 1 GCACUCUGAUUGACAAAUACGAUUU; chain 2 AAAUCGUAUUUGUCAAUCAGAGUGC; listed as RNA, chemistry not given here)” as the substance, how does the “relative level of fluc expression” value [1] read?
Answer: 38.2±3.9%
